Assay results reported in PMC6272797, “Antitrypanosomal Acetylene Fatty Acid Derivatives from the Seeds of Porcelia macrocarpa (Annonaceae)” (Molecules, 2015).
Like-named read-outs stand apart in the source and are kept apart here.

What was measured:
[1] = tested on: T. cruzi trypomastigotes (Y strain); assay: Activity against T. cruzi trypomastigotes (MTT viability assay); type: cell-based, Trypanosoma cruzi; settings: for SI (selectivity index): CC50 NCTC cells/IC50 trypomastigotes; for IC50: Trypanosoma cruzi, free trypomastigotes, read-out: IC50 T. cruzi trypomastigote; for IC50 / antitrypanosomal activity against T. cruzi trypomastigotes (in words): MTT; for antitrypanosomal activity against T. cruzi trypomastigotes (in words): in vitro
Procedure: T. cruzi trypomastigotes (Y strain) were maintained in LLC-MK2 (ATCC CCL 7) cells using RPMI-1640 medium supplemented with 2% FBS at 37 °C and 5% CO2-humidified incubator [34].
Free trypomastigotes obtained from LLC-MK2 cultures were counted in a Neubauer hemocytometer and seeded at 1 × 10^6/well in 96-well microplates. Tested compounds were incubated to the highest concentration of 300 μg/mL for 24 h at 37 °C in a 5% CO2 humidified incubator; using benznidazole as standard drug. The viability of the trypomastigotes was verified by the MTT assay as previously described.
The data obtained represent the mean and standard deviation of duplicate samples from three independent assays. The IC50 and CC50 values were calculated using sigmoid dose-response curves in Graph Pad Prism 5.0 software (GraphPad Software, San Diego, CA, USA), and the 95% confidence intervals are included in parentheses.

[2] = Cytotoxicity against mammalian cells (MTT assay); type: cell-based; settings: mouse, NCTC clone 929 cells
Procedure: The 50% cytotoxic concentration (CC50) was determined in NCTC clone 929 cells. NCTC cells were seeded at 6 × 10^4 cells/well in 96-well microplates at 37 °C in a 5% CO2. […] The viability of the cells was determined by MTT assay at 570 nm. The Selectivity Index (SI) was determined considering the following equation: CC50 NCTC cells/IC50 trypomastigotes. […] The data obtained represent the mean and standard deviation of duplicate samples from three independent assays. The IC50 and CC50 values were calculated using sigmoid dose-response curves in Graph Pad Prism 5.0 software (GraphPad Software, San Diego, CA, USA), and the 95% confidence intervals are included in parentheses.

[3] = 24 h, 24 h, highest concentration 300 µg/mL, CI95% in parentheses
[4] = highest concentration 100 µg/mL, CI95% in parentheses

| IC50 [1, 3] [µg/mL] | IC50 ([1]; 24 h, 24 h) [µM] | SMILES | SI (selectivity index) [1] | CC50 at 48 h [2] [µM] | CC50 at 48 h [2, 4] [µg/mL] | trypomastigote forms of T. cruzi killed ([1]; at the highest tested concentration (300 µg/mL), 24 h) [%] | effectiveness relative to the standard drug benznidazole ([1]; comparison of IC50 against trypomastigotes) | antitrypanosomal activity against T. cruzi trypomastigotes (in words) [1] |
| --- | --- | --- | --- | --- | --- | --- | --- | --- |
| > 300 | – | CCCC#CC#CCCCCCCCCCCC(=O)OCC(COC(=O)CCCCCCCCCCC#CC#CCCC)OC(=O)CCCCCCC/C=C\CCCCCCCC [Compound 2, α,α'-dimacrocarpoyl-β-oleylglycerol] | – | – | – | – | – | inactive |
| > 300 | – | CCCC#CC#CCCCCCCCCCCC(=O)OCC(O)COC(=O)CCCCCCC/C=C\CCCCCCCC (stereo not drawn) [Compound 3, α-macrocarpoyl-α'-oleylglycerol] | – | – | – | – | – | inactive |

More lines, now with the values behind:

| SMILES | IC50 [1, 3] [µg/mL] | IC50 ([1]; 24 h, 24 h) [µM] | SI (selectivity index) [1] | CC50 at 48 h [2] [µM] | CC50 at 48 h [2, 4] [µg/mL] | trypomastigote forms of T. cruzi killed ([1]; at the highest tested concentration (300 µg/mL), 24 h) [%] | effectiveness relative to the standard drug benznidazole ([1]; comparison of IC50 against trypomastigotes) | antitrypanosomal activity against T. cruzi trypomastigotes (in words) [1] |
| --- | --- | --- | --- | --- | --- | --- | --- | --- |
| O=C(Cn1ccnc1[N+](=O)[O-])NCc1ccccc1 [Benznidazole, benznidazole, reference compound] | 139 | 534 | 0.9 | 484 | 126 | – | – | – |
| CCCC#CC#CCCCCCCCCCCC(=O)O [Compound 1, 12,14-octadecadiynoic acid] | 10.7 | 38.8 | 4.1 | 160 | 44.3 | 100 | approximately ten times more effective | displayed in vitro activity |
| CCCCCCCCCCCCCCCCCC(=O)O [Compound 1a, octadecanoic acid] | > 300 | – | – | – | – | – | – | – |
